Results reported in patent US20170333591A9, “ABSORBENT ARTICLE COMPRISING MALODOR REDUCTION COMPOSITIONS” (The Procter & Gamble Company, priority 2014, published 2017).

Experiment: Log of liquid dish neat product liquid-air partition coefficient
Format: physicochemical
Conditions: not given

SMILES | Comment Code: Log of liquid dish neat product liquid-air partition coefficient
COC(Cc1ccccc1)OC [Material 627] | K (Log of liquid dish neat product liquid-air partition coefficient greater than or equal to 7)
CC(=O)CCc1ccccc1 [Material 640] | K (Log of liquid dish neat product liquid-air partition coefficient greater than or equal to 7)
CC(C)CC(=O)OCc1ccccc1 [Material 645] | K (Log of liquid dish neat product liquid-air partition coefficient greater than or equal to 7)
CC(C)C(=O)OCc1ccccc1 [Material 647] | K (Log of liquid dish neat product liquid-air partition coefficient greater than or equal to 7)
CC(C)C1OCCC2(CC3CCC2(C)C3(C)C)O1 (stereo not drawn) [Material 659] | K (Log of liquid dish neat product liquid-air partition coefficient greater than or equal to 7)
COc1ccc(COC(C)=O)cc1 [Material 664] | K (Log of liquid dish neat product liquid-air partition coefficient greater than or equal to 7)
COc1ccc(COC=O)cc1 [Material 665] | K (Log of liquid dish neat product liquid-air partition coefficient greater than or equal to 7)
CCCCCOC(=O)c1ccccc1 [Material 672] | K (Log of liquid dish neat product liquid-air partition coefficient greater than or equal to 7)
C[C@@H]1CC[C@H]2C(C)(C)[C@H]3C[C@@]12CC1OC(C)(C)OC13C (stereo partly drawn) [Material 674] | K (Log of liquid dish neat product liquid-air partition coefficient greater than or equal to 7)

Same assay, conditions: code letters K/L of the Comment Code

SMILES | Log of liquid dish neat product liquid-air partition coefficient (Comment Code)
COC(Cc1ccccc1)OC [Material 627] | K (Log of liquid dish neat product liquid-air partition coefficient greater than or equal to 7)
C=CC(=C)CCC=C(C)CCC=C(C)C [Material 628] | K (Log of liquid dish neat product liquid-air partition coefficient greater than or equal to 7)
CC(=O)C=CC12OC1(C)CCCC2(C)C (stereo not drawn) [Material 636] | K (Log of liquid dish neat product liquid-air partition coefficient greater than or equal to 7)
CC(C)(O)CCc1ccccc1 [Material 639] | K (Log of liquid dish neat product liquid-air partition coefficient greater than or equal to 7)
CC(C)(O)Cc1ccccc1 [Material 649] | K (Log of liquid dish neat product liquid-air partition coefficient greater than or equal to 7)
CC(C)C1OCCC2(CC3CCC2(C)C3(C)C)O1 (stereo not drawn) [Material 659] | K (Log of liquid dish neat product liquid-air partition coefficient greater than or equal to 7)
CC(C)=CCCC1=CCC(C#N)CC1 (stereo not drawn) [Material 660] | K (Log of liquid dish neat product liquid-air partition coefficient greater than or equal to 7)
CCCCCOC(=O)C=Cc1ccccc1 [Material 671] | K (Log of liquid dish neat product liquid-air partition coefficient greater than or equal to 7)
C[C@@H]1CC[C@H]2C(C)(C)[C@H]3C[C@@]12CC1OC(C)(C)OC13C (stereo partly drawn) [Material 674] | K (Log of liquid dish neat product liquid-air partition coefficient greater than or equal to 7)
CC1(O)CCC2=C(CCCC2(C)C)C1 (stereo not drawn) [Material 675] | K (Log of liquid dish neat product liquid-air partition coefficient greater than or equal to 7)
CC1(O)CCC2=C(CCCC2(C)C)C1 (stereo not drawn) [Material 676] | K (Log of liquid dish neat product liquid-air partition coefficient greater than or equal to 7)
CCC(O)COC1CCCCC1C(C)(C)C (stereo not drawn) [Material 677] | K (Log of liquid dish neat product liquid-air partition coefficient greater than or equal to 7)
